ChEMBL document CHEMBL1649315, “Extended-spectrum cephalosporinase in Acinetobacter baumannii” (Antimicrob Agents Chemother, 2010)
Values after ≈ are worked out from the molar mass of the structure shown.

Columns and labels:
[1] = tested on: Acinetobacter baumannii; experiment: Ratio of Kcat to Km for Acinetobacter baumannii ADC-33 beta-lactamase to Kcat to Km for Acinetobacter baumannii ADC-11 beta-lactamase
[2] = tested on: Escherichia coli; experiment: Antimicrobial activity against Escherichia coli TOP10 harboring pADC-33 plasmid with entire blaAmpC gene by Etest method; type: functional
[3] = tested on: Acinetobacter baumannii; experiment: Antimicrobial activity against Acinetobacter baumannii AYE expressing VEB-1 gene by Etest method; type: functional
[4] = tested on: Escherichia coli; experiment: Antimicrobial activity against Escherichia coli TOP10 harboring pADC-11 plasmid with entire blaAmpC gene by Etest method; type: functional
[5] = tested on: Escherichia coli; experiment: Antimicrobial activity against Escherichia coli TOP10 harboring pADC-33 plasmid carrying entire blaAmpC gene with alanine residue deletion at 215 position and R210P substitution by Etest method; type: functional
[6] = tested on: Escherichia coli; experiment: Antimicrobial activity against Escherichia coli TOP10 harboring pADC-11 plasmid carrying entire blaAmpC gene with alanine residue insertion at 215 position by Etest method; type: functional
[7] = tested on: Escherichia coli; experiment: Antimicrobial activity against Escherichia coli TOP10 harboring pADC-33 plasmid by Etest method; type: functional
[8] = tested on: Escherichia coli; experiment: Antimicrobial activity against Escherichia coli TOP10 harboring pTOPO plasmid by Etest method; type: functional
[9] = tested on: Acinetobacter baumannii; experiment: Antimicrobial activity against Acinetobacter baumannii KI by Etest method; type: functional
[10] = tested on: Acinetobacter baumannii; experiment: Antimicrobial activity against Acinetobacter baumannii CIP70.10 by Etest method; type: functional
[11] = tested on: Escherichia coli; experiment: Antimicrobial activity against Escherichia coli TOP10 harboring pADC-11 plasmid by Etest method; type: functional
[12] = tested on: Escherichia coli; experiment: Antimicrobial activity against Escherichia coli TOP10 harboring pADC-33 plasmid with entire blaAmpC gene with alanine residue deletion at 215 position by Etest method; type: functional
[13] = tested on: Escherichia coli; experiment: Antimicrobial activity against Escherichia coli TOP10 harboring pADC-11 plasmid carrying entire blaAmpC gene with alanine residue insertion at 215 position and R210P substitution by Etest method; type: functional
[14] = tested on: Escherichia coli; experiment: Antimicrobial activity against Escherichia coli TOP10 harboring pADC-50 plasmid by Etest method; type: functional
[15] = tested on: Escherichia coli; experiment: Antimicrobial activity against Escherichia coli TOP10 harboring pTOPO plasmid by Etest method in presence of clavulanic acid; type: functional
[16] = tested on: Escherichia coli; experiment: Antimicrobial activity against Escherichia coli TOP10 harboring pADC-11 plasmid carrying entire blaAmpC gene with alanine residue insertion at 215 position by Etest method in presence of clavulanic acid; type: functional
[17] = tested on: Escherichia coli; experiment: Antimicrobial activity against Escherichia coli TOP10 harboring pADC-11 plasmid by Etest method in presence of clavulanic acid; type: functional
[18] = tested on: Acinetobacter baumannii; experiment: Antimicrobial activity against Acinetobacter baumannii CIP70.10 by Etest method in presence of clavulanic acid; type: functional
[19] = tested on: Acinetobacter baumannii; experiment: Antimicrobial activity against Acinetobacter baumannii KI by Etest method in presence of clavulanic acid; type: functional
[20] = tested on: Escherichia coli; experiment: Antimicrobial activity against Escherichia coli TOP10 harboring pADC-33 plasmid carrying entire blaAmpC gene with alanine residue deletion at 215 position by Etest method in presence of clavulanic acid; type: functional
[21] = tested on: Escherichia coli; experiment: Antimicrobial activity against Escherichia coli TOP10 harboring pADC-11 plasmid carrying entire blaAmpC gene with alanine residue deletion at 215 position and R210P substitution by Etest method in presence of clavulanic acid; type: functional
[22] = tested on: Acinetobacter baumannii; experiment: Antimicrobial activity against Acinetobacter baumannii AYE expressing VEB-1 gene by Etest method in presence of clavulanic acid; type: functional
[23] = tested on: Escherichia coli; experiment: Antimicrobial activity against Escherichia coli TOP10 harboring pADC-33 plasmid carrying entire blaAmpC gene with alanine residue deletion at 215 position and R210P substitution by Etest method in presence of clavulanic acid; type: functional
[24] = tested on: Escherichia coli; experiment: Antimicrobial activity against Escherichia coli TOP10 harboring pADC-33 plasmid carrying entire blaAmpC gene by Etest method in presence of clavulanic acid; type: functional
[25] = tested on: Escherichia coli; experiment: Antimicrobial activity against Escherichia coli TOP10 harboring pADC-11 plasmid carrying entire blaAmpC gene by Etest method in presence of clavulanic acid; type: functional
[26] = tested on: Escherichia coli; experiment: Antimicrobial activity against Escherichia coli TOP10 harboring pADC-33 plasmid by Etest method in presence of clavulanic acid; type: functional
[27] = tested on: Escherichia coli; experiment: Antimicrobial activity against Escherichia coli TOP10 harboring pADC-50 plasmid by Etest method in presence of clavulanic acid; type: functional
[28] = tested on: CC(=O)OCC1=C(C(=O)O)N2C(=O)[C@@H](NC(=O)Cc3cccs3)[C@H]2SC1; experiment: (§1) Activity of Acinetobacter baumannii ADC-33 beta-lactamase
[29] = tested on: CCN1CCN(C(=O)N[C@@H](C(=O)N[C@@H]2C(=O)N3[C@@H]2SC(C)(C)[C@@H]3C(=O)O)c2ccccc2)C(=O)C1=O; experiment: as §1
[30] = tested on: CC(C)(O/N=C(\C(=O)N[C@@H]1C(=O)N2C(C(=O)[O-])=C(C[n+]3ccccc3)CS[C@H]12)c1csc(N)n1)C(=O)O; experiment: as §1
[31] = tested on: O=C(Cc1cccs1)N[C@@H]1C(=O)N2C(C(=O)[O-])=C(C[n+]3ccccc3)CS[C@H]12; experiment: as §1
[32] = tested on: CO/N=C(\C(=O)N[C@@H]1C(=O)N2C(C(=O)[O-])=C(C[n+]3cccc4c3CCC4)CS[C@H]12)c1csc(N)n1; experiment: as §1
[33] = tested on: CO[C@@]1(NC(=O)Cc2cccs2)C(=O)N2C(C(=O)O)=C(COC(N)=O)CS[C@@H]21; experiment: as §1
[34] = tested on: CC1(C)S[C@@H]2[C@H](NC(=O)[C@H](N)c3ccccc3)C(=O)N2[C@H]1C(=O)O; experiment: as §1
[35] = tested on: CC1(C)S[C@@H]2[C@H](NC(=O)Cc3ccccc3)C(=O)N2[C@H]1C(=O)O; experiment: as §1
[36] = tested on: CC(=O)OCC1=C(C(=O)O)N2C(=O)[C@@H](NC(=O)Cc3cccs3)[C@H]2SC1; experiment: (§2) Ratio of Kcat to Km for Acinetobacter baumannii ADC-33 beta-lactamase
[37] = tested on: CCN1CCN(C(=O)N[C@@H](C(=O)N[C@@H]2C(=O)N3[C@@H]2SC(C)(C)[C@@H]3C(=O)O)c2ccccc2)C(=O)C1=O; experiment: as §2
[38] = tested on: O=C(Cc1cccs1)N[C@@H]1C(=O)N2C(C(=O)[O-])=C(C[n+]3ccccc3)CS[C@H]12; experiment: as §2
[39] = tested on: CO/N=C(\C(=O)N[C@@H]1C(=O)N2C(C(=O)[O-])=C(C[n+]3cccc4c3CCC4)CS[C@H]12)c1csc(N)n1; experiment: as §2
[40] = tested on: CC1(C)S[C@@H]2[C@H](NC(=O)[C@H](N)c3ccccc3)C(=O)N2[C@H]1C(=O)O; experiment: as §2
[41] = tested on: CC1(C)S[C@@H]2[C@H](NC(=O)Cc3ccccc3)C(=O)N2[C@H]1C(=O)O; experiment: as §2
[42] = tested on: CO/N=C(\C(=O)N[C@@H]1C(=O)N2C(C(=O)O)=C(COC(C)=O)CS[C@H]12)c1csc(N)n1; experiment: (§3) Ratio of Kcat to Ki for Acinetobacter baumannii ADC-33 beta-lactamase
[43] = tested on: CO[C@@]1(NC(=O)Cc2cccs2)C(=O)N2C(C(=O)O)=C(COC(N)=O)CS[C@@H]21; experiment: as §3

**Q.** Which kcat/Km [1] does the source give for `C[C@@H](O)[C@H]1C(=O)N2C(C(=O)O)=C(SCCNC=N)C[C@H]12` [IMIPENEM ANHYDROUS] here?
**A.** 800000 M⁻¹ s⁻¹

**Q.** What about the MIC [2] of the same molecule?
**A.** 0.5 µg/mL (≈ 1.67 µM)

**Q.** What about the MIC [3] of the same molecule?
**A.** 1 µg/mL (≈ 3.34 µM)

**Q.** What about the MIC [4] of the same molecule?
**A.** 0.38 µg/mL (≈ 1.27 µM)

**Q.** What about the MIC [5] of the same molecule?
**A.** 0.25 µg/mL (≈ 0.835 µM)

**Q.** What about the MIC [6] of the same molecule?
**A.** 0.38 µg/mL (≈ 1.27 µM)

**Q.** What about the MIC [7] of the same molecule?
**A.** 0.25 µg/mL (≈ 0.835 µM)

**Q.** And the MIC [8]?
**A.** 0.125 µg/mL (≈ 0.418 µM)

**Q.** What about the MIC [9] of the same molecule?
**A.** 2 µg/mL (≈ 6.68 µM)

**Q.** And the MIC [10]?
**A.** 0.25 µg/mL (≈ 0.835 µM)

**Q.** And the MIC [11]?
**A.** 0.19 µg/mL (≈ 0.635 µM)

**Q.** What about the MIC [12] of the same molecule?
**A.** 0.5 µg/mL (≈ 1.67 µM)

**Q.** What does the source list for `C[C@@H](O)[C@H]1C(=O)N2C(C(=O)O)=C(S[C@@H]3CN[C@H](C(=O)N(C)C)C3)[C@H](C)[C@H]12` [MEROPENEM]?
**A.** MIC [2]: 0.032 µg/mL (≈ 0.0834 µM); MIC [3]: 1 µg/mL (≈ 2.61 µM); MIC [4]: 0.032 µg/mL (≈ 0.0834 µM); MIC [13]: 0.032 µg/mL (≈ 0.0834 µM); MIC [5]: 0.032 µg/mL (≈ 0.0834 µM); MIC [6]: 0.032 µg/mL (≈ 0.0834 µM); MIC [7]: 0.023 µg/mL (≈ 0.06 µM); MIC [8]: 0.023 µg/mL (≈ 0.06 µM); MIC [9]: 2 µg/mL (≈ 5.22 µM); MIC [10]: 0.25 µg/mL (≈ 0.652 µM); MIC [11]: 0.023 µg/mL (≈ 0.06 µM); MIC [12]: 0.032 µg/mL (≈ 0.0834 µM); MIC [14]: 0.023 µg/mL (≈ 0.06 µM)

**Q.** Which results are given for `CC1(C)S[C@@H]2[C@H](NC(=O)[C@H](C(=O)O)c3ccsc3)C(=O)N2[C@H]1C(=O)O` [TICARCILLIN]?
**A.** MIC [15]: 2 µg/mL; MIC [16]: > 256 µg/mL; MIC [17]: 8 µg/mL; MIC [18]: 8 µg/mL; MIC [19]: 64 µg/mL; MIC [20]: 128 µg/mL; MIC [21]: > 256 µg/mL; MIC [2]: > 256 µg/mL; MIC [22]: 128 µg/mL; MIC [23]: 128 µg/mL; MIC [3]: > 256 µg/mL; MIC [24]: > 256 µg/mL; MIC [4]: 256 µg/mL (≈ 666 µM); MIC [13]: > 256 µg/mL; MIC [5]: 128 µg/mL (≈ 333 µM); MIC [6]: > 256 µg/mL; MIC [7]: 64 µg/mL (≈ 166 µM); MIC [8]: 2 µg/mL (≈ 5.2 µM); MIC [9]: > 256 µg/mL; MIC [25]: 256 µg/mL; MIC [10]: 8 µg/mL (≈ 20.8 µM); MIC [26]: 64 µg/mL; MIC [11]: 8 µg/mL (≈ 20.8 µM); MIC [12]: 128 µg/mL (≈ 333 µM); MIC [27]: 8 µg/mL; MIC [14]: 8 µg/mL (≈ 20.8 µM)

**Q.** What does the source list for “Beta-lactamase ADC-33 (Acinetobacter baumannii) (from UniProt B2ZTR6)”?
**A.** Km [28]: 120 µM; kcat [28]: 140 s⁻¹; Km [29]: 16 µM; kcat [29]: 4 s⁻¹; Km [30]: 30 µM; kcat [30]: 4 s⁻¹; Km [31]: 100 µM; kcat [31]: 220 s⁻¹; Km [32]: 700 µM; kcat [32]: 35 s⁻¹; kcat [33]: 0.3 s⁻¹; Km [34]: 9 µM; kcat [34]: 4 s⁻¹; Km [35]: 3 µM; kcat/Km [36]: 1e+06 M⁻¹ s⁻¹; kcat/Km [37]: 250000 M⁻¹ s⁻¹; kcat/Km [38]: 2e+06 M⁻¹ s⁻¹; kcat/Km [39]: 50000 M⁻¹ s⁻¹; kcat/Km [40]: 500000 M⁻¹ s⁻¹; kcat/Km [41]: 5e+06 M⁻¹ s⁻¹; kcat/Km [42]: 2e+06 M⁻¹ s⁻¹; kcat/Km [43]: 3e+06 M⁻¹ s⁻¹
